Assay results as given in patent US20240150377A1, “MODULATORS OF CYSTIC FIBROSIS TRANSMEMBRANE CONDUCTANCE REGULATOR” (VERTEX PHARMACEUTICALS INCORPORATED, priority 2020, published 2024).
Where two headings read alike, the source gives them in different places. Each block holds one compound with its values, some of them ahead of it.

Target: T1, CFTR (Homo sapiens, UniProt P13569, DEL508-508)
T1 construct: endogenous in cells; host or cells: primary human bronchial epithelial cells from CF subjects (F508del/MF-HBE), differentiated at air-liquid interface
T1 sequence (P13569 with tags, fused parts or gaps DEL508-508): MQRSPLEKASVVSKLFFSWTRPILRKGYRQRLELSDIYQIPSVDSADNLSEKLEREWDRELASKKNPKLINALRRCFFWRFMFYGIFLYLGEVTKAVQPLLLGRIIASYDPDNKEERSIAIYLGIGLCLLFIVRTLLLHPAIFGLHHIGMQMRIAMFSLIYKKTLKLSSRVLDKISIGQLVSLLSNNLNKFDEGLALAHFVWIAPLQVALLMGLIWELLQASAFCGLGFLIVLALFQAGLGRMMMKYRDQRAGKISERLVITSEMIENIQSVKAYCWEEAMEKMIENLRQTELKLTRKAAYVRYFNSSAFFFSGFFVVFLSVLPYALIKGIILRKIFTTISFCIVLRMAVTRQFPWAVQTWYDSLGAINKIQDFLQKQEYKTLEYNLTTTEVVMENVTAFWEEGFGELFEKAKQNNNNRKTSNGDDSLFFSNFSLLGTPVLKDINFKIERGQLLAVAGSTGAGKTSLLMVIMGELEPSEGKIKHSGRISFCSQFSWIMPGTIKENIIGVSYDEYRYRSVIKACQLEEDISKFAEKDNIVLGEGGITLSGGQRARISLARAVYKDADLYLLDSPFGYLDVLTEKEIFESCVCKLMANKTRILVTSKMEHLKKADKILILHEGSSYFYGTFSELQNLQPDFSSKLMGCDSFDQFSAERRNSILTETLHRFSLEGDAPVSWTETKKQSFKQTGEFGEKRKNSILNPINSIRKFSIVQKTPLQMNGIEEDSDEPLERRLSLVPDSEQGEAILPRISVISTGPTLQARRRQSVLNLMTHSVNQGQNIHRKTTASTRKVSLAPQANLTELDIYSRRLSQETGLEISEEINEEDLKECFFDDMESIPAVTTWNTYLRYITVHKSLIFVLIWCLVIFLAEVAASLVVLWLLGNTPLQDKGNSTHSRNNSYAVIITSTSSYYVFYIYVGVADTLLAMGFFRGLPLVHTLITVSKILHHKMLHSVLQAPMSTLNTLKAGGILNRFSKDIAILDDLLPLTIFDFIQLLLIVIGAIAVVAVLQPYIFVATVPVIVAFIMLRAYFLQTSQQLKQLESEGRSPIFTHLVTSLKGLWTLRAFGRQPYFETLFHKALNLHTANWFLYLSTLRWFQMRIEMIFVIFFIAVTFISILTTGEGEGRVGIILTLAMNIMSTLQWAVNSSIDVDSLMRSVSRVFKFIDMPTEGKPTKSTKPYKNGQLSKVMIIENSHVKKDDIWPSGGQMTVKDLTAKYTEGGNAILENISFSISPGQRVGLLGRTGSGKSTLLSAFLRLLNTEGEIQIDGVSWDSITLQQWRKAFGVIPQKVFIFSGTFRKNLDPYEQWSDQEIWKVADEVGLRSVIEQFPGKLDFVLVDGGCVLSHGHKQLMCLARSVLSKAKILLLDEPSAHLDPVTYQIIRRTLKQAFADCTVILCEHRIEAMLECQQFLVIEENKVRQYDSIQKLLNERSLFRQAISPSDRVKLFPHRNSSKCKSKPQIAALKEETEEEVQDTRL
Assay: HBE assay: Ussing chamber assay of CFTR-mediated short-circuit currents
Assay type: cell-based
Details: for EC50: read-out: HBE EC50
Method in brief: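 CFTR-mediated Isc (μA/cm²) equals the peak response to apical 20 μM forskolin minus the residual after a 20 μM each BPO/GlyH-101/CFTR inhibitor 172 cocktail, recorded in Ussing chambers at Vhold 0 mV, 37 °C, pH 7.4, with 30 μM apical amiloride. Cells were F508del/MF HBE cultures preincubated 18-24 h with corrector (concentration range or 10 μM) plus 1 μM ivacaftor in 20% human serum.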

[1] = Table 13, read-out: HBE Activity at 10 μM (%)
[2] = Table 13, read-out: HBE Max Activity (%)
[3] = Table 10, read-out: HBE Max activity (%)
[4] = HBE assay, read-out: HBE Max activity (%)
[5] = Table 11, read-out: HBE Max Activity (%)

Structure (SMILES): Cc1cccc(C)c1-c1cc2nc(n1)NS(=O)(=O)c1cccc(c1)C(=O)N(CC(=O)NC1CCOCC1)[C@H](CC(C)(C)C)CO2 [Compound 189]
activation at 10 µM [1]: > 600%

Structure (SMILES): Cc1cccc(C)c1-c1cc2nc(n1)NS(=O)(=O)c1cccc(c1)C(=O)N(CC(=O)N1C[C@@H](C)O[C@@H](C)C1)[C@H](CC(C)(C)C)CO2 [Compound 199]
activation at 10 µM [1]: > 600%

Structure (SMILES): Cc1cccc(C)c1-c1cc2nc(n1)NS(=O)(=O)c1cccc(c1)C(=O)N(Cc1ccc3c(n1)C(C)CCO3)C(CC(C)(C)C)CO2 (centres unmarked) [Compound 794]
Emax [3]: > 60%

Structure (SMILES): COC(C)(C)CN(C)c1cncc(CN2C(=O)c3cccc(c3)S(=O)(=O)Nc3nc(cc(-c4c(C)cccc4C)n3)OC[C@H]2CC(C)(C)C)n1 [Compound 1491]
EC50 (HBE assay): < 1000 nM
Emax [4]: > 60%

Structure (SMILES): Cc1cccc(C)c1-c1cc2nc(n1)NS(=O)(=O)c1cccc(c1)C(=O)N(CC(=O)N1Cc3ccccc3C1)[C@H](CC(C)(C)C)CO2 [Compound 168]
activation at 10 µM [1]: > 600%

Structure (SMILES): Cc1cccc(C)c1-c1cc2nc(n1)NS(=O)(=O)c1cccc(c1)C(=O)N(C(C)c1ccc(-c3c(C)n[nH]c3C)cc1)[C@H](CC(C)(C)C)CO2 (some centres unmarked) [Compound 294]
activation at 10 µM (Table 10, read-out: HBE activity at 10 (μM) (%)): > 60%

Structure (SMILES): COc1cc(OC(C)C)cnc1CN1C(=O)c2cccc(c2)S(=O)(=O)Nc2nc(cc(-c3c(C)cccc3C)n2)OC[C@H]1CC(C)(C)C [Compound 1117]
EC50 (Table 13): < 1000 nM
Emax [2]: > 60%

Structure (SMILES): Cc1cccc(C)c1-c1cc2nc(n1)NS(=O)(=O)c1cccc(c1)C(=O)N(Cc1ccc(C3CC4(C3)CC(C)(C)C4)cn1)[C@H](CC(C)(C)C)CO2 [Compound 1057]
activation at 10 µM [1]: > 600%

Structure (SMILES): C=C(C)c1cccc(CN2C(=O)c3cccc(c3)S(=O)(=O)Nc3nc(cc(-c4c(C)cccc4C)n3)OC[C@H]2CC(C)(C)C)n1 [Compound 735]
activation at 10 µM (Table 11, read-out: HBE Activity at 10 μM (%)): > 60%
EC50 (Table 11): < 1000 nM
Emax [5]: > 60%

Structure (SMILES): Cc1cccc(C)c1-c1cc2nc(n1)NS(=O)(=O)c1cccc(c1)C(=O)N(Cc1cc(OC(C)C)ccn1)[C@H](CC(C)(C)C)CO2 [Compound 1114]
activation at 10 µM [1]: > 600%

Structure (SMILES): Cc1cccc(C)c1-c1cc2nc(n1)NS(=O)(=O)c1cccc(c1)C(=O)N(Cc1cccc3ccnn13)[C@H](CC(C)(C)C)CO2 [Compound 878]
activation at 10 µM (Table 12, read-out: HBE Activity at 10 μM (%)): > 600%

Structure (SMILES): Cc1cccc(C)c1-c1cc2nc(n1)NS(=O)(=O)c1cccc(c1)C(=O)N(Cc1ccccc1-c1c(C)n[nH]c1C)[C@H](CC(C)(C)C)CO2 [Compound 306]
EC50 (Table 10): < 1000 nM
Emax [3]: > 60%

Continued, values first:

EC50 (Table 13): < 1000 nM
Emax [2]: > 60%
Structure (SMILES): Cc1cccc(C)c1-c1cc2nc(n1)NS(=O)(=O)c1cccc(c1)C(=O)N(Cc1ncc(OC(C)C)cn1)[C@H](CC(C)(C)C(F)(F)F)CO2 [Compound 1121]

activation at 10 µM [1]: > 600%
Structure (SMILES): Cc1cccc(C)c1-c1cc2nc(n1)NS(=O)(=O)c1cccc(c1)C(=O)N(Cc1nccc(N(C)C(C3CC3)C3CC3)n1)[C@H](CC(C)(C)C)CO2 [Compound 434]

EC50 (Table 11): < 1000 nM
Emax [5]: > 60%
Structure (SMILES): Cc1cccc(C)c1-c1cc2nc(n1)NS(=O)(=O)c1cccc(c1)C(=O)N(Cc1nccc(N(C)C3CCC3)n1)[C@H](CC(C)(C)C)CO2 [Compound 627]

EC50 (HBE assay): < 1000 nM
Emax [4]: > 60%
Structure (SMILES): Cc1cccc(C)c1-c1cc2nc(n1)NS(=O)(=O)c1cccc(c1)C(=O)N(Cc1ncc(N3CC(OC(C)C)C3)cn1)[C@H](CC(C)(C)C)CO2 [Compound 1404]

EC50 (Table 13): 1000 to 3000 nM
Emax [2]: > 60%
Structure (SMILES): Cc1cccc(C)c1-c1cc2nc(n1)NS(=O)(=O)c1cccc(c1)C(=O)N(Cc1ncc(N3CCC(C)(C)CC3)cc1C(F)(F)F)[C@H](CC(C)(C)C)CO2 [Compound 1139]

EC50 (Table 12): < 1000 nM
Emax (Table 12, read-out: HBE Max Activity (%)): > 60%
Structure (SMILES): Cc1cccc(C)c1-c1cc2nc(n1)NS(=O)(=O)c1cccc(c1)C(=O)N(Cc1ncc(N3CCC(OC(C)C)CC3)cn1)[C@H](CC(C)(C)C)CO2 [Compound 568]

EC50 (HBE assay): < 1000 nM
Emax [4]: > 60%
Structure (SMILES): Cc1cccc(C)c1-c1cc2nc(n1)NS(=O)(=O)c1cccc(c1)C(=O)N(Cc1ncc(N3CC(F)(F)C3)cn1)[C@H](CC(C)(C)C)CO2 [Compound 1444]

EC50 (Table 11): < 1000 nM
Emax [5]: > 60%
Structure (SMILES): Cc1cccc(C)c1-c1cc2nc(n1)NS(=O)(=O)c1cccc(c1)C(=O)N(Cc1ncc(N3CCC(C)CC3)cn1)[C@H](CC(C)(C)C)CO2 [Compound 719]
